Target: full-length human His-tagged BTK (Homo sapiens (Human), UniProt Q06187)
Assay: BTK HTRF assay (Cisbio KinEASE-TK)
Assay type: biochemical
Details: 6 nM BTK, 15 min preincubation at 28° C., 30 uM ATP
Description: BTK Assay An HTRF assay (Cisbio KinEASE-TK cat #62TKOPEC) was performed to quantitate the ability of test compounds to inhibit BTK mediated phosphorylation of substrate. […] Then, 1 uM of TK substrate-biotin and 30 uM ATP were added and incubated for an additional 30 minutes at 28° C. Phospohrylation was detected by adding 62.5 nM Streptavidin-XL665 and TK-Antibody Cryptate diluted 1:100 in HTRF detection buffer (Cisbio cat #62SDBRDF) and incubated for 60 minutes at RT. The plate was read on an Envision plate reader and the fluoresence is measured at 620 nm (cryptate) and 665 nm (XL665). A ratio is calculated (665/620) and converted to POC relative to control and blank wells. Assay Buffer: […]

Chain of full-length human His-tagged BTK (Q06187 whole entry): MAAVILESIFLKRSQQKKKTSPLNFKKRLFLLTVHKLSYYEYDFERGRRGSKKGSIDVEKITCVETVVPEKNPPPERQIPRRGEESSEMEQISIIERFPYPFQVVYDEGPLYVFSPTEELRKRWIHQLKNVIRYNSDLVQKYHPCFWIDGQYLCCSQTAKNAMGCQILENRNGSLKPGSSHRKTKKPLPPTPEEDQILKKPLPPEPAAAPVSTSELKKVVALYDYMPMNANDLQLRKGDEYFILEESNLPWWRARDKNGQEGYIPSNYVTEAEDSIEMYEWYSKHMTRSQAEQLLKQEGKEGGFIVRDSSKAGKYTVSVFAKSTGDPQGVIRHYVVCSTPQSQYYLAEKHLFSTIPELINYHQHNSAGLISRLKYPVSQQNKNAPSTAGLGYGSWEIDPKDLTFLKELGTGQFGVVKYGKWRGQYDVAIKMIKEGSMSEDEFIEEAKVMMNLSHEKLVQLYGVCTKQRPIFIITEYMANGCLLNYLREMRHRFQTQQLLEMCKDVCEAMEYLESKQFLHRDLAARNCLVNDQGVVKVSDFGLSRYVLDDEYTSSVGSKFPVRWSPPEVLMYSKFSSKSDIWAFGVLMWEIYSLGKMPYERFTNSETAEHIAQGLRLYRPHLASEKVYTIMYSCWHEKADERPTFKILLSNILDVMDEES

Row | Compound | IC50 [nM]
1 | C=CC(=O)N1CC2(CC(n3nc(-c4ccc(Oc5ccccc5)cc4)c4c(N)ncnc43)C2)C1 [Example 1] | 1
2 | CN(C)C/C=C/C(=O)N1CC2(CC(n3nc(-c4ccc(Oc5ccccc5)cc4)c4c(N)ncnc43)C2)C1 [Example 2] | 1.8
3 | CC#CC(=O)N1CC2(CC(n3nc(-c4ccc(Oc5ccccc5)cc4)c4c(N)ncnc43)C2)C1 [Example 3] | 0.83
4 | Nc1ncnc2c1c(-c1ccc(Oc3ccccc3)cc1)nn2C1CC2(C1)CN(C(=O)C1CO1)C2 (stereo not shown) [Example 4] | 13
5 | C=CC(=O)N1CCC2(CC(n3nc(-c4ccc(Oc5ccccc5)cc4)c4c(N)ncnc43)C2)C1 (stereo not shown) [Example 5] | 0.87
6 | C=CC(=O)N1CC2(CC(n3nc(-c4ccc(-c5cnc(Cc6ccccc6)n(C)c5=O)cc4F)c4c(N)ncnc43)C2)C1 [Example 6] | 0.85
7 | CC#CC(=O)N1CC2(CC(n3nc(-c4ccc(Oc5ccccc5)nc4)c4c(N)ncnc43)C2)C1 [Example 7] | 1.1
8 | C=CC(=O)N1CC2(CC(n3nc(-c4ccc(Oc5ccccc5)nc4)c4c(N)ncnc43)C2)C1 [Example 8] | 2.4
9 | C/C=C/C(=O)N1CC2(CC(n3nc(-c4ccc(Oc5ccccc5)nc4)c4c(N)ncnc43)C2)C1 [Example 9] | 83
10 | CC#CC(=O)N1CC[C@]2(C1)C[C@@H](n1nc(-c3ccc(Oc4ccccc4)cn3)c3c(N)ncnc31)C2 [Example 13] | 0.74
11 | CN(C)C/C=C/C(=O)N1CC2(CC(n3nc(-c4ccc(Oc5ccccc5)cn4)c4c(N)ncnc43)C2)C1 [Example 15] | 32
12 | CN(C)C/C=C/C(=O)N1CC[C@]2(C1)C[C@@H](n1nc(-c3ccc(Oc4ccccc4)cn3)c3c(N)ncnc31)C2 [Example 16] | 8.1
13 | CN(C)C/C=C/C(=O)N1CC[C@]2(C1)C[C@H](n1nc(-c3ccc(Oc4ccccc4)cn3)c3c(N)ncnc31)C2 [Example 17] | 7.1
